In a melting point compilation (Tetko et al.; mined from patent text by program, amines drawn as free bases though some values may be those of a salt):
Residues, ends and D or L forms follow the SMILES beside them. *: point of attachment. Bz = O=C(c1ccccc1)*

Row | Structure (SMILES) | melting point [°C]
1 | Cc1cn(C)cc(-c2cccc(C(F)(F)F)c2)c1=O | 130 to 131
2 | Cc1cc(-c2ccc(OC(F)(F)F)cc2)cc(-c2cccc(-c3cccc(S(=O)(=O)NC(C)(C)C)c3)n2)n1 | 148
3 | C#CCOC(=O)C1C(C)=NC(N2CCCCC2)=C(C(=O)OCC)C1c1cccc([N+](=O)[O-])c1 (stereo not given) | 121
4 | NCCCN1CCC(c2noc3cc(F)ccc23)CC1 | 59 to 62
5 | NC(=O)c1ccc2nc3ccsc3c(=O)n2c1 | 319 to 320
6 | CCc1cccc(CC(=O)O)c1OCCCc1cn(-c2ccc(C(F)(F)F)nn2)nc1C(C)C | 126 to 127
7 | CC(=O)Nc1nc(O)c2cc(I)cnc2n1 | > 280
8 | CC(C)(C)c1cc(/C=C/C(=O)CC(=O)/C=C/c2cc(C(C)(C)C)c(O)c(C(C)(C)C)c2)cc(C(C)(C)C)c1O | 192 to 196
9 | CC(C)CCCC(C)C1CCC2C3CC4(OCCO4)C4CCCC(O)C4(C)C3CCC12C (stereo not given) | 96 to 98
10 | Cc1nc2cc(S(=O)(=O)n3c(CCCC(=O)O)cc4nc(Cl)ccc43)ccc2s1 | 173
11 | Cc1cc2nc(OC(C)C)nc(-c3cccc(C(F)(F)F)c3)c2s1 | 106
12 | CC#CCOc1ccc(C(=O)NC[C@@H](C(=O)NO)N2CCN(S(C)(=O)=O)CC2)cc1 | 127
13 | Cc1cccc(N2CCN(CCc3ccc(NC(=O)NCCCCl)cc3)CC2)c1 | 168
14 | CCCCCC1(C(=O)Nc2ccc(C(=O)O)cn2)CC2=C(C1)C(C)(C)CCC2(C)C | 172 to 174
15 | Cn1cc(C(F)(F)F)c(C(=O)O)n1 | 174 to 175
16 | CN1C(=O)CN=C(c2ccccn2)c2cc(C#C[Si](C)(C)C)ccc21 | 194 to 195
17 | C/C(=C(\C#N)C(N)=S)N1CCCN(c2ccccn2)CC1 | 155 to 157
18 | C[C@]12CC[C@H]3[C@@H](CCC4=CC(=O)CC[C@@H]43)[C@@H]1CCC21CC(O)CO1 (stereo not given in full) | 149 to 154
19 | N#CCCNC(=O)C1=CC(CF)(CF)Oc2ccc(Br)cc21 | 140 to 142
20 | Oc1c(CCl)cc(F)cc1CCl | 70
21 | COC(=O)C1CCC2(C)C(=CC(O)C3C2CCC2(C)C(O)CCC32)C1 (stereo not given) | 150 to 152

Row | Structure (SMILES) | melting point [°C]
22 | Cc1ccc2nc(NC(=N)N)[nH]c2c1C | 122 to 124
23 | COCc1ccn2nc(S(=O)(=O)Cl)nc2n1 | 125
24 | CCn1cnc(N2CCc3ccccc3CC2)c(C#N)c1=O | 138 to 140
25 | O=[N+]([O-])c1cc(Br)ccc1-c1ccc(Cl)cc1Cl | 112 to 115
26 | CC(C)NC1=C(Cl)NC(N)(C(=O)NC#N)C=N1 (stereo not given) | 232
27 | CCCCCCCCCCCCCCCCOCC(COP(=O)(O)O)OCCCCCCCCCCCCCCCC (stereo not given) | 157 to 159
28 | CC(=O)Oc1cc2c(c([N+](=O)[O-])c1OC(C)=O)C(=O)C(C)(C)CC2 | 145 to 147
29 | COC(=O)c1cn(-c2ncccn2)cc1C | 108
30 | COc1cc2cc3c(Cl)c(C#N)cnc3cc2cc1O | > 300
31 | Oc1cc2c(cc1C13CC4CC(CC(C4)C1)C3)CCCC2 | 169 to 170
32 | Cc1cc(-n2cc(I)nc2C)ccc1[N+](=O)[O-] | 146 to 148
33 | O=S(=O)(Oc1ccc(S(=O)(=O)c2ccc(OS(=O)(=O)c3ccccc3)cc2)cc1)c1ccccc1 | 133 to 134
34 | CCOC(=O)Nc1nc(C)c(-c2nc3ccccc3c(=O)n2-c2ccccc2)s1 | 248 to 251
35 | CC(C)C(=O)NC[C@H]1CN(c2ccc3c(c2)CCCc2cnoc2-3)C(=O)O1 | 187 to 193
36 | Cc1coc(NC(=S)Nc2cc(Cl)ccc2C)n1 | 207 to 208
37 | CCCn1nc2c(N)nc3ccccc3c2c1CC(C)(C)C#N | 248 to 250
38 | Cc1cc(CCCCCOc2c(Cl)cc(-c3cccs3)cc2Cl)on1 | 45 to 47
39 | OCCN1CCN(c2cc(Sc3ccc(Cl)cc3)nc(-c3ccccc3)n2)CC1 | 118 to 120
40 | CC(CC(=O)O)Nc1cccc(Cl)c1 (stereo not given) | 50
41 | Cc1cc(-c2nc3cccnn3c2-c2ccnc(NC(=O)CC(F)(F)F)c2)ccc1F | 220 to 221
42 | CSC1NC(=O)N(Cc2ccco2)C(=O)N1 | 209 to 211

Row | Structure (SMILES) | melting point [°C]
43 | COc1cc2cc3c(Cl)ncnc3cc2cc1OCCN1CCOCC1 | 166 to 168
44 | Cc1cc(SCc2ccc(OCc3ccc(OC(F)(F)F)cc3)cc2)ccc1OCC(=O)O | 141 to 142
45 | CCOC(=O)c1ccc(CC(C)NCC(O)c2ccc(O)c(CO)c2)cc1 (stereo not given) | 92 to 96
46 | CC(O)Cn1c(COC(N)=O)nc(C(C)C)c1Sc1cc(Cl)cc(Cl)c1 (stereo not given) | 82
47 | CC1(C)CCCc2cc(CC#Cc3ccc(C(=O)O)c(O)c3)ccc21 | 152 to 153
48 | CC1(C)OC(c2ccc(-c3ccc(Cl)cc3)cc2)OC1=O (stereo not given) | 108 to 110
49 | CS(=O)(=O)c1ccc(/C(=C\C2CCCCCC2)C(=O)Nc2nccs2)cc1 | 163 to 165
50 | N#Cc1cccc2c1NC(=O)C2c1ncnc2nn(C3CCCC3)cc12 (stereo not given) | > 380
51 | Cc1ccc(-c2ncc(C)cn2)cc1 | 122 to 123
52 | COC(OC)c1cnc(N2C(=O)c3ccccc3C2=O)c(C#N)n1 | 115 to 116
53 | CN1CC[C@H](c2ccccc2)[C@H](O)C1 (relative stereo) | 95 to 97
54 | CCOCc1nc2c(N)nc3cc(OCCCCCCNC(C)=O)ccc3c2n1CC(C)(C)NC(=O)NC(C)C | 90 to 110
55 | CC(C)OCC1(C(C)(F)F)c2cc(Cl)ccc2Nc2ncccc21 (stereo not given) | 148 to 149
56 | Fc1cc(Br)cc(CBr)c1 | 41 to 43
57 | COCCOc1ccc(CCNC(=O)C(F)(F)F)cc1S(=O)(=O)N=CN(C)C | 134 to 136
58 | CC(C)(C)OC(=O)NC1(CCOS(C)(=O)=O)CC1 | 88 to 89
59 | Cc1cc2c(c([N+](=O)[O-])c1)N(c1ccccc1C#N)CC2 | 138 to 139
60 | COC(=O)c1ccc(CNc2cc(-c3cc4cc(F)c(F)cc4[nH]3)ccc2OC)cc1 | 168 to 170
61 | COc1cccc(Nc2ccnc(Nc3cc(C)c(OC)c(OC)c3)n2)c1 | 66 to 68
62 | CC(=O)c1cc(C(C)=O)c(O)c(C(C)C)c1O | 132 to 133
63 | O=C(NCc1nc(O)cc(O)n1)c1cccs1 | 270 to 275

Results, then the molecule that gave them:

Row | melting point [°C] | Structure (SMILES)
64 | 61 | Cc1ccc(C=C(C#N)c2ccccc2)cc1
65 | 149 to 150 | CC(CO)(CCCCN1C(=O)c2ccccc2C1=O)c1ccccc1 (stereo not given)
66 | 155 to 156 | O=C(NC(=O)N1CCC(Cc2ccccc2)CC1)c1ccc(OCc2ccccc2)cc1
67 | 50.5 to 52.5 | O=C1CCCN1CCc1ccccc1
68 | 199 | Cc1cccc(C(=O)O)c1N(C)S(=O)(=O)c1ccc(OCCCNC(=O)c2cc3ccccc3[nH]2)cc1
69 | 263 | O=C(Nc1nnn[nH]1)c1ccc(OCCn2ccnc2)cc1
70 | 193 to 196 | CN(CCOc1ccc(CC(C(=O)O)S(=O)(=O)c2ccccc2)cc1)c1nc2ccccc2o1 (stereo not given)
71 | 148 | O=C(NC(CS)Cc1ccccc1)N1CCN(c2ccc(Cl)cc2)CC1 (single isomer, unassigned; (+))
72 | 133 to 134 | CC(=O)OCc1cn(C(c2ccccc2)(c2ccccc2)c2ccccc2)cn1
73 | 134 to 136 | CCCCn1c(=O)n(CCCC)c2cc3c(N4CCN(C(=O)Nc5ccc(Oc6ccccc6)cc5)CC4)ncnc3cc21
74 | 170 to 171 | O=c1c(Cc2ccccc2)cn(-c2cccc(Cl)c2)c2ncccc12
75 | 138 to 140 | Cc1nc(-c2ccccc2)nc(-c2cccc([N+](=O)[O-])c2)c1CN1CCN(C)CC1
76 | 203 to 205 | COc1ccc(OC)c(CNc2ccc3nc[nH]c(=O)c3c2)c1
77 | 163 to 164 | N#Cc1c(O)nsc1S(=O)(=O)c1ccccc1
78 | 80 to 81 | COC(=O)Cc1ccccc1OCc1cc(OCCc2nc(-c3ccccc3)sc2C)no1
79 | 173 to 175 | COc1ccc(CCN2CC(COc3cccc4c(=O)[nH]ccc34)OC2=O)cc1OC (stereo not given)
80 | 155 to 156 | CC(=O)Nc1c(CC(=O)O)cccc1Oc1ccccc1
81 | 183 to 184 | Nc1cccc(-c2ccnc3c(C(=O)c4cccs4)cnn23)c1
82 | 164 | CC(C)(C)OC(=O)NC(C)(C)c1ccc(-c2nc(Nc3cccc(CCO)c3)ncc2C#N)cc1

Row | melting point [°C] | Structure (SMILES)
83 | 59 to 61 | C=CCc1ccc(OCc2ccc(OC)cc2)cc1
84 | 120 to 122 | Nc1nccnc1OCc1cccnc1
85 | 185 to 189 | O=C(CN1CCC(Cc2ccccc2)CC1)Nc1ccc2[nH]cnc2c1
86 | 176 to 177 | CSc1cccc(COCCCn2ccnc2)c1NC(=O)CC1c2ccccc2Oc2ccccc21
87 | 104 to 107 | COC(=O)C(OC(=O)c1ccc(C(=O)O)cc1)C(=O)OC
88 | 187 to 188 | O=C(NNC(=O)c1ncnc2[nH]ccc12)OCc1ccccc1
89 | 237 to 239 | CCNC(=O)[C@H](C)NC(=O)[C@H](C)NC(=O)c1ccccc1 (Bz-Ala-Ala-NHEt)
90 | 223 to 225 | CCn1c(=O)c(-c2ccsc2)cc2cnc(Nc3ccccc3)nc21
91 | 137 to 138 | Cc1oc(-c2ccccc2)nc1COc1ccc(COc2cncc(CC#N)c2)cc1
92 | 188 | O=C(CCl)Nc1ccc(Cl)cc1C(=O)O
93 | 115 to 117 | CC(=O)NNC(COCc1cc(C)cc(C)c1)C1c2ccccc2C=Cc2ccccc21 (stereo not given)
94 | 214 to 216 | O=C(O)Cn1c(-c2cccc(Cl)c2)nc2cccnc21
95 | 164 to 167 | CCc1cn(N=Cc2ccccc2)c(N)n1
96 | 160 to 161 | c1ccc(-c2nc(COc3cccc(Cc4nnn[nH]4)c3)cs2)cc1
97 | 186 to 193 | Cn1cc2c(nc(NC(=O)Nc3ccc(CC(=O)NCCCCNC(=O)OC(C)(C)C)cc3)n3nc(-c4ccco4)nc23)n1
98 | 165 to 166 | COc1cc(COc2ccccc2CC(=O)O)ccc1OCc1nc(-c2ccccc2)oc1C
99 | 80 to 81 | CCCCc1cc(=O)c(C(=O)OCC)cn1Cc1ccc(-c2ccccc2C(=O)OC(C)(C)C)cc1
100 | 113 | O=C(OC(Cc1ccccc1)C(=O)O)c1ccccc1 (stereo not given)
